Experimental data published in patent publication US20240050463A1, “THERAPEUTIC COMPOSITIONS AND METHODS FOR TREATING HEPATITIS B” (ARBUTUS BIOPHARMA CORPORATION, priority 2016, published 2024).

What was measured:
[1] = tested on: HBV rcDNA in AML12-HBV10 cells; test: Inhibition of rcDNA in AML12-HBV10 cells (bDNA assay), checkerboard, MacSynergy II; assay type: cell-based, HBV (mouse hepatocyte cell line); conditions: Hepatitis B virus, AML12HBV10, in Mus musculus, expected from additive interaction; Compound 3 0.3125 μM; ETV μM in c0 of the row
Protocol: The two inhibitors were tested both singly as well as in combinations in a checkerboard fashion such that each concentration of inhibitor A was combined with each concentration of inhibitor B to determine their combination effects on inhibition of rcDNA production.

[2] = tested on: D type HBV in primary human hepatocytes (PHH); test: HBV DNA in culture supernatants of HBV-infected primary human hepatocytes (qPCR), MacSynergy; assay type: cell-based; conditions: COMPOUND 25 0.00 nM
Protocol: The mouse liver perfusion was applied to isolate PHHs. The isolated hepatocytes were further purified by Percoll. The cells were resuspended with culture media and seeded into the 96-well plates (6×10^4 cell/well) or 48-well plates (1.2×10^5 cell/well). The PHHs were infected with a D type HBV one day post seeding (day 1).
On day 2, the test compounds were diluted and added into the cell culture plates. The culture media containing the compounds were refreshed every other day. The cell culture supernatants were collected on day 8 for the HBV DNA and antigen determinations.
The compounds were tested at 7 concentrations, 3-fold dilution, in triplicate.
Two compounds were tested at 5×5 matrix, in triplicate plates.
DNA in the culture supernatants harvested on days 8 were isolated with QIAamp 96 DNA Blood Kit (Qiagen-51161). For each sample, 100 μl of the culture supernatants was used to extract DNA. The DNA was eluted with 100 μl, 150 μl or 180 μl of AE. HBV DNA in the culture supernatants was quantified by qPCR. The combination effect was analyzed by the MacSynergy software. The primers are described below.

hepatitis B virus (HBV) = test: Serum HBsAg in humanized liver chimeric mouse model of chronic HBV infection (GS HBsAg EIA 3.0); assay type: in vivo; conditions: Compound 3 oral 100 mg/kg twice daily, SIRNA-NP intravenous 3 mg/kg every 2 weeks, ETV oral 1.2 μg/kg daily, pegIFN α-2a subcutaneous 30 μg/kg twice a week
Protocol: This work was conducted in a well-established humanized liver chimeric mouse model of chronic hepatitis B virus (HBV) infection (Tsuge et al., Hepatology, 42(5), 1046-54 (2005)). A persistent level of HBV infection was established in the animals prior to the treatment phase which started at Day 0.
The anti-HBV effects were assessed based on serum HBsAg levels using the GS HBsAg EIA 3.0 enzyme linked immunosorbent assay kit from Bio-Rad Laboratories as per manufacturer instructions; and serum HBV DNA levels measured from total extracted DNA using a quantitative PCR assay (primer/probe sequences from Tanaka et al., Journal of Medical Virology, 72, 223-229 (2004)).

Row | Structure (SMILES) | inhibition at 0.3125 µM [1] | AVERAGE % INHIBITION, HBV DNA ([2]; COMPOUND 3 61.73 nM) | AVERAGE % INHIBITION, HBV DNA ([2]; COMPOUND 3 185.19 nM) | AVERAGE % INHIBITION, HBV DNA ([2]; COMPOUND 3 555.56 nM) | AVERAGE % INHIBITION, HBV DNA ([2]; COMPOUND 3 1666.67 nM) | AVERAGE % INHIBITION, HBV DNA ([2]; COMPOUND 3 5000.00 nM) | Serum HBsAg (± SEM) (hepatitis B virus (HBV); Day 0 (start of treatment)) | Serum HBsAg (± SEM) (hepatitis B virus (HBV); Day 21)
1 | CC[C@@H](C)NS(=O)(=O)c1ccc(F)c(C(=O)Nc2ccc(F)c(F)c2)c1 [Compound 3] | 71% | −28.13% | −25.93% | −3.32% | 25.94% | 74.78% | – | –
2 | C=C1[C@H](CO)[C@@H](O)C[C@@H]1n1cnc2c(=O)[nH]c(N)nc21 [ETV, Entecavir] | – | – | – | – | – | – | 2649 ± 282 IU/mL | 2975 ± 629 IU/mL
